Values of other authors in patent US20060153842A1, “Immunosuppressive combination and its use in the treatment or prophylaxis or insulin-producing cell graft rejection” (priority 2001, published 2006).

Test system: islet allograft in male rats
Conditions: male rats hyperglycemic with streptozotocin; pre-administration the day before and the day of grafting

## CCCCCCCCc1ccc(CCC(N)(CO)CO)cc1 [FTY720, 2-amino-2-[2-(4-octylphenyl)ethyl]propane-1,3-diol]
  prolonged islet allograft survival: up to 20 days
